pEC50, pIC50: −log10 of the molar value. Like-named read-outs stand apart in the source and are kept apart here.

Assay [1] has as its system ERBB2. Put plainly: ERBB2 (HER2) flow cytometry protein degradation assay in BT-474 cells. To be noted: DC50, BT-474 cells, 24 hr. It is filed as cell-based, human. How it is done:
To analyze total ERBB2 expression by flow cytometry, cells were detached with trypsin, washed, counted and treated with 10 μl/10^6 cells PE-conjugated, anti-ERBB2 monoclonal antibody (R&D Systems, #FAB1129P) for 30 min at 25° C. in dark. Cells were then washed, resuspended in 200 μl 1% paraformaldehyde and analyzed by flow cytometry.
% Inhibition=100−(D−B)/(S−B)*100%. • S: Fluorescence intensity of cells with antibody • D: Fluorescence intensity of compound-treated cells with antibody • B: Fluorescence intensity of cells without antibody
Background: Flow cytometry measures light scatter and fluorescence of single cells or particles in a stream.

The subject of assay [2] is MV-4-11 human acute myeloid leukemia. The assay is described as follows: MV-4-11 CCK-8 proliferation assay. It is filed as cell-based. Particulars: MV-4-11 cells, 72 hr. The method, boiled down:
(§1)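 Inhibition is derived from CCK-8 absorbance of compound-treated cells relative to DMSO-treated cells, after subtracting a cell-free medium/DMSO background. Test concentrations span 20 μM down to 1.02 nM in 3-fold steps, and lines are cultured as ATCC recommends.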

The test system of assay [3] is U-87 MG human glioblastoma. Put plainly: U87 MG CCK-8 proliferation assay. It is filed as cell-based. Particulars: U-87 MG cells, read-out: U87MG CCK-8. The method, boiled down:
as §1
(Tetrazolium assays rely on reduction of a dye to a coloured formazan, in cell work by metabolically active cells.)

For assay [4], the target named is T1, HSP90α protein (Homo sapiens, UniProt P07900).
T1 construct: purchased BPS Bioscience #50298
The assay is described as follows: HSP90α-binding FP (BODIPY) assay. Particulars: FP competition with BODIPY-labeled RNK04010. Put shortly: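 Fluorescence polarization measured competition with N-terminal human HSP90α, using either FITC-geldanamycin or BODIPY-labelled triazolone RNK04010 as tracer (5 nM final each). Compounds were tested in 2.5-fold dilutions from 20 μM to 5.2 nM, with incubation at 25 °C for 120 min (FITC) or 300 min (BODIPY).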

As to `CCOc1cc(N2CCC(C(=O)NCc3ccc(-n4c(O)nnc4-c4cc(C)c(O)cc4O)cc3)CC2)ccc1Nc1ncc2c(n1)N(C)c1ccccc1C(=O)N2C` [Compound 027, N-(4-(3-(2,4-dihydroxy-5-methylphenyl)-5-hydroxy-4H-1,2,4-triazol-4-yl)benzyl)-1-(4-((5,11-dimethyl-6-oxo-6,11-dihydro-5H-benzo[e]pyrimido[5,4-b][1,4]diazepin-2-yl)amino)-3-ethoxyphenyl)piperidine-4-carboxamide], in assay [1], the ERBB2 degradation result is reported as “C (DC50 > 1000 nM)”. Further, the pEC50 in assay [2] (Homo sapiens, MV4-11) was 6.00 to 7.00; in assay [3] (Homo sapiens, U-87 MG, 72 h), less than 6.00.

For `CCOc1cc(N2CCC(C(=O)NCc3ccc(-n4c(O)nnc4-c4cc(CC)c(O)cc4O)cc3)CC2)ccc1Nc1ncc2c(n1)N(C)c1ccccc1C(=O)N2C` [Compound 028, 1-(4-((5,11-dimethyl-6-oxo-6,11-dihydro-5H-benzo[e]pyrimido[5,4-b][1,4]diazepin-2-yl)amino)-3-ethoxyphenyl)-N-(4-(3-(5-ethyl-2,4-dihydroxyphenyl)-5-hydroxy-4H-1,2,4-triazol-4-yl)benzyl)piperidine-4-carboxamide], the negative logarithm of the IC50 (pIC50) (usually the IC50 on a negative log10 scale, so that one unit is a factor of ten) in assay [4] was 6.00 to 7.00. For the same molecule, the ERBB2 degradation entry in assay [1] is recorded as “B (DC50 = 100-1000 nM)”. Moreover, the pEC50 in assay [2] (Homo sapiens, MV4-11) was 6.00 to 7.00; in assay [3] (Homo sapiens, U-87 MG, 72 h) it was less than 6.00.

`CCCc1cc(-c2nnc(O)n2-c2ccc(CNC(=O)C3CCN(c4ccc(Nc5ncc6c(n5)N(C)c5ccccc5C(=O)N6C)c(OCC)c4)CC3)cc2)c(O)cc1O` [Compound 029, N-(4-(3-(2,4-dihydroxy-5-propylphenyl)-5-hydroxy-4H-1,2,4-triazol-4-yl)benzyl)-1-(4-((5,11-dimethyl-6-oxo-6,11-dihydro-5H-benzo[e]pyrimido[5,4-b][1,4]diazepin-2-yl)amino)-3-ethoxyphenyl)piperidine-4-carboxamide]: the ERBB2 degradation result in assay [1] is “B (DC50 = 100-1000 nM)”. Further, the pEC50 was 6.00 to 7.00 in assay [2] (Homo sapiens, MV4-11) and less than 6.00 in assay [3] (72 hr).

For the molecule `CCOc1cc(N2CCC(C(=O)NCc3ccc(-n4c(O)nnc4-c4cc(C(C)C)c(O)cc4O)cc3C(F)(F)F)CC2)ccc1Nc1ncc2c(n1)N(C)c1ccccc1C(=O)N2C` [Compound 030, N-(4-(3-(2,4-dihydroxy-5-isopropylphenyl)-5-hydroxy-4H-1,2,4-triazol-4-yl)-2-(trifluoromethyl)benzyl)-1-(4-((5,11-dimethyl-6-oxo-6,11-dihydro-5H-benzo[e]pyrimido[5,4-b][1,4]diazepin-2-yl)amino)-3-ethoxyphenyl)piperidine-4-carboxamide], the ERBB2 degradation entry in assay [1] is “B (DC50 = 100-1000 nM)”. Also, the pEC50 in assay [2] (Homo sapiens, MV4-11) is 6.00 to 7.00; in assay [3] (Homo sapiens, U-87 MG, 72 h), less than 6.00.

For `CCOc1cc(N2CCC(C(=O)NCc3ccc(-n4c(O)nnc4-c4cc(CC)c(O)cc4O)cc3C(F)(F)F)CC2)ccc1Nc1ncc2c(n1)N(C)c1ccccc1C(=O)N2C` [Compound 031, 1-(4-((5,11-dimethyl-6-oxo-6,11-dihydro-5H-benzo[e]pyrimido[5,4-b][1,4]diazepin-2-yl)amino)-3-ethoxyphenyl)-N-(4-(3-(5-ethyl-2,4-dihydroxyphenyl)-5-hydroxy-4H-1,2,4-triazol-4-yl)-2-(trifluoromethyl)benzyl)piperidine-4-carboxamide], the pIC50 in assay [4] is less than 6.00. Further, the ERBB2 degradation entry in assay [1] is listed as “C (DC50 > 1000 nM)”. The pEC50 in assay [2] (Homo sapiens, MV4-11) was less than 6.00; in assay [3] (Homo sapiens, U-87 MG, 72 h), less than 6.00.

With `CCOc1cc(N2CCC(C(=O)NCCc3ccc(CN4CCC(Cc5ccc(-n6c(C(=O)NCC(F)(F)F)nnc6-c6cc(C(C)C)c(O)cc6O)cc5)CC4)cc3)CC2)ccc1Nc1ncc2c(n1)N(C)c1ccccc1C(=O)N2C` [Compound 035, N-(4-((4-(4-(3-(2,4-dihydroxy-5-isopropylphenyl)-5-((2,2,2-trifluoroethyl)carbamoyl)-4H-1,2,4-triazol-4-yl)benzyl)piperidin-1-yl)methyl)phenethyl)-1-(4-((5,11-dimethyl-6-oxo-6,11-dihydro-5H-benzo[e]pyrimido[5,4-b][1,4]diazepin-2-yl)amino)-3-ethoxyphenyl)piperidine-4-carboxamide], in assay [4], the pIC50 was 6.00 to 7.00. In assay [1], the ERBB2 degradation result is “B (DC50 = 100-1000 nM)”. The pEC50 in assay [2] (Homo sapiens, MV4-11) is more than 7.00; in assay [3] (Homo sapiens, U-87 MG, 72 h), 6.00 to 7.00.

Regarding `CCOc1cc(N2CCC(C(=O)NCc3ccc(-n4c(O)nnc4-c4cc(CC)c(O)cc4O)cc3F)CC2)ccc1Nc1ncc2c(n1)N(C)c1ccccc1C(=O)N2C` [Compound 037, 1-(4-((5,11-dimethyl-6-oxo-6,11-dihydro-5H-benzo[e]pyrimido[5,4-b][1,4]diazepin-2-yl)amino)-3-ethoxyphenyl)-N-(4-(3-(5-ethyl-2,4-dihydroxyphenyl)-5-hydroxy-4H-1,2,4-triazol-4-yl)-2-fluorobenzyl)piperidine-4-carboxamide], the ERBB2 degradation entry in assay [1] is “B (DC50 = 100-1000 nM)”. In addition, the pEC50 was 6.00 to 7.00 in assay [2] (Homo sapiens, MV4-11) and 6.00 to 7.00 in assay [3] (Homo sapiens, U-87 MG, 72 h).

With `CCOc1cc(N2CCC(C(=O)N3CCC(N4CCN(Cc5ccc(-n6c(O)nnc6-c6cc(C(C)C)c(O)cc6O)cc5C(F)(F)F)CC4)CC3)CC2)ccc1Nc1ncc2c(n1)N(C)c1ccccc1C(=O)N2C` [Compound 038, 2-((4-(4-(4-(4-(4-(3-(2,4-dihydroxy-5-isopropylphenyl)-5-hydroxy-4H-1,2,4-triazol-4-yl)-2-(trifluoromethyl)benzyl)piperazin-1-yl)piperidine-1-carbonyl)piperidin-1-yl)-2-ethoxyphenyl)amino)-5,11-dimethyl-5,11-dihydro-6H-benzo[e]pyrimido[5,4-b][1,4]diazepin-6-one], in assay [4], the pIC50 is 6.00 to 7.00. In addition, the ERBB2 degradation result in assay [1] is “B (DC50 = 100-1000 nM)”. Moreover, the pEC50 is more than 7.00 in assay [2] (Homo sapiens, MV4-11) and less than 6.00 in assay [3] (Homo sapiens, U-87 MG, 72 h).

As to `CCCc1cc(-c2nnc(O)n2-c2ccc(CNC(=O)C3CCN(c4ccc(Nc5ncc6c(n5)N(C)c5ccccc5C(=O)N6C)c(OCC)c4)CC3)cc2)c(O)cc1O` [Compound 039, N-(4-(3-(2,4-dihydroxy-5-propylphenyl)-5-hydroxy-4H-1,2,4-triazol-4-yl)benzyl)-1-(4-((5,11-dimethyl-6-oxo-6,11-dihydro-5H-benzo[e]pyrimido[5,4-b][1,4]diazepin-2-yl)amino)-3-ethoxyphenyl)piperidine-4-carboxamide], in assay [1], the ERBB2 degradation entry is “B (DC50 = 100-1000 nM)”. Besides, the pEC50 in assay [2] and in assay [3] (72 hr) was 6.00 to 7.00 in each case.

Regarding `CCOc1cc(N2CCC(C(=O)NCc3ccc(CN4CCC(Cc5ccc(-n6c(C(=O)NC(C)C)nnc6-c6cc(C(C)C)c(O)cc6O)cc5)CC4)cc3)CC2)ccc1Nc1ncc2c(n1)N(C)c1ccccc1C(=O)N2C` [Compound 056, N-(4-((4-(4-(3-(2,4-dihydroxy-5-isopropylphenyl)-5-(isopropylcarbamoyl)-4H-1,2,4-triazol-4-yl)benzyl)piperidin-1-yl)methyl)benzyl)-1-(4-((5,11-dimethyl-6-oxo-6,11-dihydro-5H-benzo[e]pyrimido[5,4-b][1,4]diazepin-2-yl)amino)-3-ethoxyphenyl)piperidine-4-carboxamide], the ERBB2 degradation entry in assay [1] is recorded as “B (DC50 = 100-1000 nM)”. The pEC50 in assay [2] (Homo sapiens, MV4-11) is more than 7.00; in assay [3] (Homo sapiens, U-87 MG, 72 h), 6.00 to 7.00.

In assay [4], “(1R,4R)-4-((2-carbamoyl-5-(6,6-dimethyl-4-oxo-3-(trifluoromethyl)-4,5,6,7-tetrahydro-1H-indazol-1-yl)phenyl)amino)cyclohexyl 4-(1-(1-(3-ethoxy-4-((5-methyl-11-(methylsulfonyl)-6-oxo-6,11-dihydro-5H-benzo[e]pyrimido[5,4-b][1,4]diazepin-2-yl)amino)phenyl)piperidine-4-carbonyl)piperidin-4-yl)piperazine-1-carboxylate [Compound 118]” had a pIC50 of less than 6.00. The pEC50 in assay [2] is 6.00 to 7.00; in assay [3] (72 hr), less than 6.00.

In assay [4], “(1R,4R)-4-((2-carbamoyl-5-(6,6-dimethyl-4-oxo-3-(trifluoromethyl)-4,5,6,7-tetrahydro-1H-indazol-1-yl)phenyl)amino)cyclohexyl 4-(1-(4-((5,11-dimethyl-6-oxo-6,11-dihydro-5H-benzo[e]pyrimido[5,4-b][1,4]diazepin-2-yl)amino)-3-ethoxyphenyl)piperidine-4-carbonyl)piperazine-1-carboxylate [Compound 104]” gave a pIC50 of less than 6.00. The pEC50 in assay [2] and in assay [3] (72 hr) was less than 6.00 in each case.

“(1R,4R)-4-((2-carbamoyl-5-(6,6-dimethyl-4-oxo-3-(trifluoromethyl)-4,5,6,7-tetrahydro-1H-indazol-1-yl)phenyl)amino)cyclohexyl (3-(1-(4-((5,11-dimethyl-6-oxo-6,11-dihydro-5H-benzo[e]pyrimido[5,4-b][1,4]diazepin-2-yl)amino)-3-ethoxyphenyl)piperidine-4-carboxamido)propyl)carbamate [Compound 102]” had a negative-log IC50 (pIC50) in assay [4] of less than 6.00. In addition, the pEC50 is 6.00 to 7.00 in assay [2] and less than 6.00 in assay [3] (72 hr).

The record behind these values is US20240124460A1, “METHODS AND COMPOSITIONS FOR TARGETED PROTEIN DEGRADATION” (Ranok Therapeutics (Hangzhou) Co. Ltd., priority 2020, published 2024).
